Measured values reported in PubChem BioAssay (NCI).
“And” between values parts separate entries of the source, which are not always exact repeats. Equal values may be shown once.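 Interpolation was linear, between the two tested concentrations surrounding the appropriate level; five concentrations were tested over 48 hours in 96-well plates. Abbreviation: GI50, concentration required for 50% inhibition of growth. Definition used: TGI = concentration required for complete inhibition of growth.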

Legend:
Assay in all cases: inhibition of tumour cell growth, NCI panel, 48 h
[1] = system: A549 NSCLC
[2] = system: KM20L2 colon
[3] = system: OVCAR-8 ovarian
[4] = system: SF-295 CNS
[5] = system: SK-MEL-2 melanoma
[6] = system: XF 498 CNS
[7] = system: A498 renal
[8] = system: DMS 273 small cell lung
[9] = system: DU-145 prostate
[10] = system: T-47D breast

CC1=C2C(=O)O[C@@H](c3ccoc3)[C@]2(C)CCC1
TGI [1]: > 100 µM | TGI [2]: > 100 µM | TGI [3]: > 100 µM | TGI [4]: > 100 µM | TGI [5]: > 100 µM | TGI [6]: > 100 µM

CC(=O)OC[C@]12CC[C@H]3[C@@H](C[C@H]4O[C@]45[C@@H](O)C=CC(=O)[C@]35C)[C@@H]1CC[C@@H]2[C@H](C)[C@H]1CC(C)=C(C)C(=O)O1
GI50 [7]: 0.852 µM and 1.2 µM | TGI [7]: 2.77 µM | GI50 [1]: 0.822 µM and 1.04 µM | TGI [1]: 3.2 µM | GI50 [8]: 0.605 µM and 0.42 µM | TGI [8]: 1.51 µM | GI50 [2]: 0.512 µM and 0.407 µM | TGI [2]: 0.829 µM and 1.44 µM | GI50 [3]: 0.331 µM and 0.285 µM | TGI [3]: 0.899 µM | GI50 [4]: 0.974 µM and 1.89 µM | TGI [4]: 4.23 µM | GI50 [5]: 0.752 µM and 0.484 µM | TGI [5]: 1.52 µM | GI50 [6]: 0.422 µM and 0.234 µM | TGI [6]: 0.799 µM and 0.581 µM

Cc1ccc2nc3c(C(=O)NCCN(C)C)cccc3nc2c1
TGI [7]: 8.7 µM | TGI [1]: > 100 µM | TGI [8]: > 100 µM | TGI [2]: 18.2 µM | TGI [3]: > 42.2 µM | TGI [4]: > 27.1 µM | TGI [5]: 12.9 µM

Cc1ccccc1N(CCC#N)C1=NN(C(=O)CC(=O)Nc2ccccc2)C(c2ccccc2)C1 (centres undefined)
TGI [1]: > 100 µM | TGI [8]: > 100 µM | TGI [2]: > 100 µM | TGI [3]: > 100 µM | TGI [4]: > 100 µM | TGI [5]: > 100 µM

CCCCCCCCCCCCCC1CCC(CC)N1 (centres undefined)
TGI [7]: 36.7 µM | TGI [1]: 36.2 µM | TGI [8]: 29.1 µM | TGI [2]: 26.2 µM | TGI [3]: 39.1 µM | TGI [4]: 32.6 µM | TGI [5]: 36.4 µM

O=c1cccccc1NCCCNc1cccccc1=O
TGI [1]: > 100 µM | TGI [8]: > 100 µM | TGI [2]: > 100 µM | TGI [3]: > 100 µM | TGI [4]: > 100 µM | TGI [5]: > 100 µM | TGI [6]: > 100 µM

CC[O-].CC[O-].O=C1c2ccccc2C(=O)c2c(O)ccc([O-])c21.O=C1c2ccccc2C(=O)c2c(O)ccc([O-])c21.[Ti+4]
TGI [7]: > 100 µM | TGI [1]: > 100 µM | TGI [8]: > 100 µM | GI50 [2]: > 100 µM | TGI [2]: > 100 µM | TGI [3]: > 100 µM | TGI [4]: > 100 µM | TGI [5]: > 100 µM

N#Cc1nc(C2OC(COC(=O)c3ccccc3)C(OC(=O)c3ccccc3)C2OC(=O)c2ccccc2)oc1N (centres undefined)
TGI [7]: > 100 µM | TGI [1]: > 100 µM | TGI [8]: > 100 µM | TGI [2]: > 100 µM | TGI [3]: > 100 µM | TGI [4]: > 100 µM | TGI [5]: 93.7 µM

CC(C)c1ccc(C(=O)Nc2sc3c(c2C(N)=O)CCC(=O)C3)cc1
GI50 [7]: 2.33 µM | TGI [7]: 8.52 µM | GI50 [1]: 1.96 µM | TGI [1]: 13.2 µM | GI50 [9]: 3.16 µM | TGI [9]: 14.3 µM | GI50 [3]: 0.71 µM | TGI [3]: 13.3 µM | GI50 [4]: 1.42 µM | TGI [4]: 3.61 µM | GI50 [5]: 2.16 µM | TGI [5]: 5.25 µM | GI50 [10]: 0.312 µM | TGI [10]: 2.1 µM

COc1ccc(C(C)c2cc3c(cc2OC)OCO3)cc1 (centres undefined)
TGI [7]: > 100 µM | TGI [1]: > 100 µM | TGI [8]: 1.29 µM | TGI [9]: > 21.9 µM | TGI [2]: 0.533 µM | TGI [3]: 17.1 µM | TGI [5]: 2.49 µM | TGI [10]: > 100 µM

Clc1nc(Cl)c2ncn(Cc3cccc(COc4cccc(OCc5cccc(Cn6cnc7c(Cl)nc(Cl)nc76)c5)c4)c3)c2n1
GI50 [7]: > 100 µM | TGI [7]: > 100 µM | GI50 [1]: > 100 µM | TGI [1]: > 100 µM | GI50 [9]: 14.2 µM | TGI [9]: 42.8 µM | GI50 [3]: 24.7 µM | TGI [3]: > 100 µM | GI50 [4]: > 100 µM | TGI [4]: > 100 µM | GI50 [5]: 17.1 µM | TGI [5]: > 100 µM | GI50 [10]: 25.8 µM | TGI [10]: > 100 µM

CCN(CC)CCCC(C)Nc1c(C)cnc2cc(Cl)c(C)cc12 (centres undefined)
GI50 [7]: 16.6 µM | TGI [7]: 31.4 µM | GI50 [1]: 15.1 µM | TGI [1]: 30 µM | GI50 [9]: 12.8 µM | TGI [9]: 27.8 µM | GI50 [3]: 11.4 µM | TGI [3]: 43.5 µM | GI50 [4]: 11.3 µM | TGI [4]: 28.1 µM | GI50 [5]: 20.4 µM | TGI [5]: > 70.6 µM | GI50 [10]: 22.9 µM | TGI [10]: > 61.7 µM

O=C1NC(=O)c2ccc([N+](=O)[O-])c3cccc1c23
TGI [7]: 29.1 µM | TGI [1]: 43.9 µM | TGI [9]: > 100 µM | TGI [3]: 26.1 µM | TGI [4]: 32.8 µM | TGI [5]: 84.1 µM | TGI [10]: 44 µM

CCOC(=O)Sc1ncnc2nc[nH]c12
GI50 [7]: 14.4 µM | TGI [7]: > 100 µM | GI50 [1]: 25.9 µM | TGI [1]: > 100 µM | GI50 [9]: 0.586 µM | TGI [9]: > 100 µM | GI50 [3]: 3.08 µM | TGI [3]: > 100 µM | GI50 [4]: 2.43 µM | TGI [4]: > 100 µM | GI50 [5]: 6.15 µM | TGI [5]: > 100 µM | GI50 [10]: 0.799 µM | TGI [10]: > 100 µM

CC/C=C\C[C@@H]1C/C=C2/C(=O)C=C[C@H]2C/C=C\CCCC(=O)O1
GI50 [7]: 1.81 µM | TGI [7]: 3.3 µM | GI50 [1]: 0.526 µM | TGI [1]: 2.2 µM | GI50 [9]: 0.362 µM | TGI [9]: 1.28 µM | GI50 [3]: 0.342 µM | TGI [3]: 2.37 µM | GI50 [4]: 1.18 µM | TGI [4]: 2.73 µM | GI50 [5]: 1.8 µM | TGI [5]: 4.23 µM | GI50 [10]: 1.6 µM | TGI [10]: 6.28 µM
